# Test results published in PMC6337619, “Identification of Novel Potential Inhibitors of Pteridine Reductase 1 in Trypanosoma brucei via Computational Structure-Based Approaches and in Vitro Inhibition Assays” (Molecules, 2019).
# Values joined by “and” are separate entries in the source; they are usually repeats but may differ in a detail not shown here. Equal values may be shown once. “Also recorded” adds a separate entry of the source. Read-outs that look alike come from different tables or passages of the source.
# Assays:
# [1] = In vitro human cytotoxicity assay (resazurin); conditions: human, HeLa cells
# Description: (§2) The compounds assayed for trypanocidal activity were also tested to determine if they caused adverse effects against human cells in vitro. For this assay, HeLa cells were used. The cells were cultured in DMEM supplemented with 10% fetal calf serum and antibiotics (penicillin/streptomycin/amphotericin B) at 37 °C in a 5 % CO2 incubator. Cells were plated at a density of 2 × 10^4 cells/well and after an overnight incubation the compounds were assayed for cytotoxic activity by adding three-fold serial dilutions of each compound (with a 100 µM starting concentration) to the 96-well plates, followed by incubation for 48 h. Cell viability was determined using the resazurin method [74]. Resazurin (0.5 mM in phosphate-buffered saline; 20 µL/well) was added to the cells and, after a 2-h incubation, fluorescence was read in a Spectramax M3 plate reader at excitation and emission wavelengths of 560 nm and 590 nm, respectively. Fluorescence readings were converted to percentage cell viability relative to control wells untreated with compounds. Plots of % cell viability versus log[compound] were used to determine IC50 values by non-linear regression using GraphPad Prism (version 5.02, GraphPad Software Inc., San Diego, USA). Three repeats of the experiment were carried out.
# [2] = test system: T. b. brucei (strain Lister 427); test: Trypanosoma in vitro inhibition assay (resazurin); assay type: cell-based; conditions: for anti-trypanosomal activity at single concentration: 20 µM, T. brucei BSF in culture; for IC50: blood stream form, 24 h + 24 h resazurin, mean ± SD of three independent experiments, read-out: IC50 against T. brucei BSF in culture
# Description: (§1) Compounds RUBi001, RUBi005, and RUBi015 were purchased from MCULE while RUBi002, RUBi004, RUBi007, RUBi008, RUBi010, RUBi011, RUBi012, RUBi014, RUBi016, and RUBi018 were obtained from MolPort (not all the compounds were commercially available). These compounds were assayed for trypanocidal activity by adding 20 μM of each compound to cultures of T. b. brucei (strain Lister 427) in 96-well plates. The parasites were maintained at 37 °C and 5% CO2 in an IMDM medium containing 25 mM HEPES, 10% fetal bovine serum, 1 mM hypoxanthine, 0.05 mM bathocuproine disulfonic acid, 1.5 mM cysteine, 1.25 mM pyruvic acid, 0.09 mM uracil, 0.09 mM cytosine, 0.16 mM thymidine, and 0.014 % 2-mercaptoethanol. Parasites were diluted to 2.4 × 10^4 cells in a volume of 200 µL per well and incubated with the test compounds for 24 h. Parasite percentage viability was determined using the resazurin method. Resazurin (0.5 mM in phosphate-buffered saline; 20 µL/well) was added to each well and incubation continued for a further 24 h, after which fluorescence (Ex560/Em590) was read in a Spectramax M3 microplate reader (Molecular Devices). Trypanocidal activity of the compounds was reported as the percentage of viable parasites in the compound-treated wells when compared to untreated controls (% viability). Pentamidine, an FDA-approved trypanocidal drug, was used as the control drug standard. For compounds that produced <20% viability, IC50 values were subsequently determined. The assays were conducted as described above, except that parasites were incubated with 3-fold serial dilutions of the test compounds and IC50 values derived from % parasite viability vs. log[compound] dose-response plots by non-linear regression analysis using GraphPad Prism (version 5.02, GraphPad Software Inc., San Diego, USA). IC50 evaluations were carried out on three independent occasions and the mean IC50 ± standard deviation is reported in the text. To assess compound interactions, the compounds were assayed for trypanocidal activity when used in combination with WR99210, a known TbDHFR inhibitor [42]. […] For isobologram analysis, the fractional inhibitory concentrations of the RUBi compounds and WR99210 were calculated by dividing the IC50s obtained for the compounds at the various combination ratios with the IC50 obtained for the compounds in the absence of the partner drug, and the FIC values plotted against each other, i.e., RUBi compound FIC versus WR99210 FIC.
# [3] = test system: T. b. brucei (strain Lister 427); test: Isobologram combination assay with WR99210; assay type: cell-based; conditions: ratios 75:25, 50:50, 25:75 with TbDHFR inhibitor WR99210
# Description: as §1
# [4] = in vitro; conditions: human, HeLa cells
# Description: as §2
# [5] = test system: HeLa cells; test: In vitro human cytotoxicity assay (resazurin); conditions: at 100 µM
# Description: as §2
# [6] = test system: T. brucei in culture; design: method as in PMID 16729575, PMID 16569852; conditions: cited from earlier work
Structure (SMILES),anti-trypanosomal activity at single concentration [2],"effect in combination with WR99210 (isobologram, FIC) [3]","IC50 ([2]; Trypanosoma brucei, 48 h)",further results
"CC[C@H]1CN2CCc3cc(OC)c(OC)cc3[C@@H]2C[C@@H]1C[C@H]1NCCc2cc(OC)c(OC)cc21 [Emetine, reference compound]",,,,IC50 at 48 h [1]: 0.013 µM
"O=c1cc(-c2cccc(O)c2O)oc2ccc(O)cc12 [RUBi001, 2-(2,3-dihydroxyphenyl)-6-hydroxychromen-4-one]",did not show anti-trypanosomal activity,,,
"COc1ccc2oc3cc(OCC(=O)Nc4c(C)cccc4C)cc(O)c3c(=O)c2c1 [RUBi002, N-(2,6-dimethylphenyl)-2-(1-hydroxy-7-methoxy-9-oxo-xanthen-3-yl)oxy-acetamide]",did not show anti-trypanosomal activity,,,
"CC1=NN(c2ccc(C)cc2C)C(=O)/C1=C/NNC(=O)c1cccc([N+](=O)[O-])c1 [RUBi004, N'-{[1-(2,4-dimethylphenyl)-3-methyl-5-oxo-1,5-dihydro-4H-pyrazol-4-ylidene]methyl}-3-nitrobenzohydrazide]",,reduced inhibition; also recorded: moderate to strong antagonism; also recorded: antagonistic effect,9.6 ± 3.2 µM,IC50 at 48 h [1]: 23.6 ± 5.8 µM
"Cc1ccccc1OCC(=O)NNC(=S)NC(=O)c1ccccc1[N+](=O)[O-] [RUBi005, 2-nitro-N-({2-[(2-methylphenoxy)acetyl]hydrazino}carbothioyl)benzamide]",did not show anti-trypanosomal activity,,,
"COc1ccc(NC(=O)CSc2nc3[nH]ncc3c(=O)n2-c2ccccc2)cc1 [RUBi007, N-(4-methoxyphenyl)-2-[(4-oxo-5-phenyl-4,5-dihydro-1H-pyrazolo[3,4-d]pyrimidin-6-yl)sulfanyl]acetamide]",,reduced inhibition; also recorded: moderate to strong antagonism; also recorded: antagonistic effects,34.9 ± 17.1 µM,"effect in combination with WR99210 (isobologram, FIC) ([3]; listed as RUB007): antagonistic effect; viability at 48 h, 100 µM [4]: > 90%; human cell cytotoxicity [5]: no significant human (human cervix adenocarcinoma (HeLa)) cell cytotoxicity"
"COc1cc(CNc2nc[nH]n2)ccc1OCc1cccc(C)c1 [RUBi008, [3-Methoxy-4-(3-methyl-benzyloxy)-benzyl]-(1H-[1,2,4]triazol-3-yl)-amine]",did not show anti-trypanosomal activity,,,
"Nc1ccc2nc(SCC(=O)N3CCCC3)sc2c1 [RUBi010, 2-{[2-oxo-2-(1-pyrrolidinyl)ethyl]sulfanyl}-1,3-benzothiazol-6-ylamine]",did not show anti-trypanosomal activity,,,
"Cc1ccc(NC(=O)Cn2c(-c3nonc3N)nc3ccccc32)cc1F [RUBi011, 2-[2-(4-amino-1,2,5-oxadiazol-3-yl)-1H-benzimidazol-1-yl]-N-(3-fluoro-4-methylphenyl)acetamide]",did not show anti-trypanosomal activity,,,
"NS(=O)(=O)c1ccc(NC(=O)NC2CCCCC2)cc1 [RUBi012, 1-cyclohexyl-3-(4-sulfamoylphenyl)urea]",did not show anti-trypanosomal activity,,,
"O=C1CC(c2ccc(O)c(O)c2)Oc2cc(O)cc(O)c21 (stereo not drawn) [RUBi014, 2-(3,4-dihydroxyphenyl)-5,7-dihydroxy-3,4-dihydro-2H-1-benzopyran-4-one]",,reduced inhibition; also recorded: moderate to strong antagonism; also recorded: antagonistic effect,14.6 ± 9.9 µM,anti-protozoal activity [6]: selectively anti-protozoal with activity against T. brucei in culture; IC50 at 48 h [1]: 32.9 ± 2.2 µM
"Cn1c(=O)c2ncn(CC(=O)Nc3ccc(O)cc3)c2n(C)c1=O [RUBi016, 2-(1,3-dimethyl-2,6-dioxo-1,2,3,6-tetrahydro-9H-purin-9-yl)-N-(4-hydroxyphenyl)acetamide]",,additive effect,25.4 ± 4.7 µM,"viability at 48 h, 100 µM [4]: > 90%; human cell cytotoxicity [5]: no significant human (human cervix adenocarcinoma (HeLa)) cell cytotoxicity"
"O=C(CC1S/C(=N\N=C2CCCC2)N=C1O)Nc1ccccc1 (stereo not drawn) [RUBi018, 2-[2-(cyclopentylidenehydrazono)-4-hydroxy-2,5-dihydro-1,3-thiazol-5-yl]-N-phenylacetamide]",,reduced inhibition; also recorded: moderate to strong antagonism; also recorded: antagonistic effect,12.7 ± 3.7 µM,"viability at 48 h, 100 µM [4]: > 90%; human cell cytotoxicity [5]: no significant human (human cervix adenocarcinoma (HeLa)) cell cytotoxicity"
"CC1(C)N=C(N)N=C(N)N1OCCCOc1cc(Cl)c(Cl)cc1Cl [WR99210, reference compound]",,,,IC50 [2]: 0.5 µM and 0.55 µM
"N=C(N)c1ccc(OCCCCCOc2ccc(C(=N)N)cc2)cc1 [pentamidine, reference compound]",,,0.014 µM,
